Measurements as given in patent publication US20200206198A1, “CFTR CHANNEL ACTIVATOR FOR USE IN THE TREATMENT AND/OR PREVENTION OF GLUTEN SENSITIVITY CONDITIONS” (priority 2017, published 2020).
pIC50: −log10 of the molar value.

Assays:
[1] = tested on: PBMC collected from celiac patients; test: Bidimensional co-culture of Caco-2 cells and PBMC from celiac patients; type: cell-based, human
Description: To translate our findings into the relevant clinical setting, we determined whether CFTR potentiators would prevent the HLA-restricted immune response to gliadin by peripheral blood mononuclear cells (PBMC) collected from celiac patients. PBMC collected from 6 celiac patients and 4 healthy controls, were cultured in the lower compartment of a bidimensional co-culture model in which confluent Caco-2 cells were placed in the upper compartment. Then, Caco-2 cells were challenged with PT gliadin or with a combination of P31-43 and P57-68 (or P57-68 alone as a negative control), as described, and IFN-γ and IL-10 were quantified in the supernatants from the lower compartment.
Five ml of peripheral blood have been withdrawn from 8 untreated celiac patients (females and males, age range 8-25 years) and from 3 DQ2+ positive not CD affected controls (healthy first-grade relatives of celiac patients). The Ethics Committee of ISS approved the protocol (# CE/12/341), and patients or patients' parents signed the informed consent. Peripheral blood mononuclear cells were isolated using lympholite (Cederlane, UK) density gradient overlaid by heparin blood diluted 1:1 in PBS and centrifuged (20 min at 900 rpm). After being washed three times, PBMCs were resuspended in complete RPMI 1640 supplemented with 25 mM HEPES, 10% (v/v) heat-inactivated FBS, 100 U/ml penicillin, […] streptomycin, and 1% 2 mM 1-glutamine.
For transwell experiments using polarized Caco-2 cells, 3 weeks prior to the experiment, Caco-2 cells were seeded at a density of 80×10^3 cells×cm^2 on 0.4-μm, 1-cm^2 tissue culture inserts (Costar, Corning Incorporated). Transwell cultures (12-well) with confluent Caco-2 monolayers were used for co-culture with 1 ml PBMC (1.5×10^6 cells/ml) using PBMC medium and kept in an incubator at 37° C. and 5% CO2. Cells were allowed to settle for 1 h before the starting of the experiment. The permeability of the epithelial monolayer was assessed just before the experiments, measuring the transwell electrical resistance between the upper and lower compartments. […]

[2] = tested on: rhNBD1 and its double mutants F400A/E403A and P439A/P477A; test: Native polyacrylamide electrophoresis (BN-PAGE) of biotinylated peptide with rhNBD1; type: binding, human
Description: Peptide-protein interactions were further studied exploiting a different biochemical strategy: recombinant NBD1, both wild type and/or its mutants, were incubated at 4° C. for 30′ in 40 mM Tris pH 7.5 in the presence of the biotinylated P31-43 peptide unless otherwise indicated and resolved in native conditions by BN-PAGE (Novex, Invitrogen). The complexes were then blotted onto PVDF membrane in accordance with the manufacturer's instructions and the interacting partners were detected with streptavidin-HRP antibody (PerkinElmer).
e-f, Blue native PAGE western blotting of P31-43 and P57-68 biotinylated peptides in the presence of rhNBD1 (e), and of WT and double NBD1 mutants in the presence of biotinylated P31-43 (0. g, SPR analysis of 4QA peptide on rhNBD1 covalently bound to CMS sensor chip. h-i, treatment of Caco-2 cells with P31-43 or P31-43 modified in different Q or P positions. (h) Assessment in Ussing chambers of CFTR-dependent Cl^− secretion measured by forskolin-induced (Fsk) increase of the chloride current (Isc (μA/cm^2); quantification of the peak CFTR Inhibitor 172 (CFTRinh172)-sensitive Isc (ΔIsc). (i) Assessment of iodide efflux by SPQ fluorescent probe upon stimulation with forskolin (Fsk) expressed as percentage of CFTR function in the presence or absence of peptide challenge. […]

[3] = molecular target: NBD1 ATPase activity; test: NBD1 ATPase activity (malachite green kit); type: biochemical, human
Description: The measurement of NBD1 ATPase activity was performed with a malachite green based kit supplied by Sigma (cod. MAK113) in accordance with the manufacturer's instructions. The enzyme activity was measured at 620 nm at room temperature using a Multiskan 96 well plates reader.

Row | Molecule | effect on IFN-γ production induced by the combination of peptides ([1]; celiac PBMC / Caco-2 co-culture) | IL-10 levels ([1]; celiac PBMC / Caco-2 co-culture, p<0.01) | effect on IL-15 accumulation in the lower compartment ([1]; p<0.001 vs peptide combination) | binding to native rhNBD1 [2] | binding to rhNBD1 double mutants F400A/E403A and P439A/P477A [2] | pIC50 [3]
1 | CC(C)(C)c1cc(C(C)(C)C)c(NC(=O)c2c[nH]c3ccccc3c2=O)cc1O [VX-770, N-(2,4-di-tert-butyl-5-hydroxyphenyl)-4-oxo-1,4-dihydroquinoline-3-carboxamide] | prevented the production of IFN-γ | restored IL-10 levels | prevented | – | – | –
2 | α-gliadin peptide LGQQQPFPPQQPY (SEQ ID 1), induces an enterocyte stress response (P31-43 sequence of alpha-gliadin) | – | – | – | bound to rhNBD1 | attenuated for both rhNBD1 mutants | ~4.30
